Source: patent publication US8202540B1, “Method for controlled production of ultrafine microparticles and nanoparticles” (Abbott GmbH & Co., KG, priority 1999, dated 2012)
Blank lines part the entries; values can stand above or below the molecule they belong to.

What was measured:
Assay type in all cases: physicochemical
[1] = Particle size by photon correlation spectroscopy (PCS, Zetasizer 4); conditions: Example 2: anhydrous glycerol, 20 cycles at 1500 bar
Excerpt: The characterization of the superfine microparticle dispersions and nanoparticles was by means of laser diffractometry (LD) (Coulter LS230, Coulter Electronics, Miami, USA) and photon correlation spectroscopy (PCS) (Zetasizer 4, Malvern Instruments, Malvern, United Kingdom). Characterization parameters were the 50% (D50%), 90% (D90%) and 95% (D95%) LD diameter measured by LD. The PCS (measurement range approx. 3 nm-3 μm) gives the PCS diameter and, as a measure of the width of the distribution, the polydispersity index (PI) in the range from 0.000 (+ideal monodispersion) to 0.500 (very broad distribution), above 0.5 no further conclusions can be drawn with regard to the width of distribution.

[2] = Particle size by laser diffractometry (LD, Coulter LS230)
[3] = Average particle diameter determined by light microscopy; conditions: Example 14: propylene glycol, 0.2% Tween 80; 700 bar, room temperature, 30 minutes, degassed medium, nitrogen
Excerpt: 10% tragacanth was dispersed in Miglyol 812 with addition of 1% Span 80 and microparticles prepared as described in example 1. The average diameter determined by light microscopy was 7.54 μm after 10 cycles at 1500 bar.
Preparation of a Clinical Batch Under Oxygen-Poor Conditions and protective gassing: azodicarbonamide (1) was dispersed with addition of Tween 80 (0.2%) analogously to example 12 in 2 kg propylene glycol and homogenized (homogenization pressure: 700 bar, room temperature) in a cyclical process for 30 minutes with a Micron LAB 60 (APV Deutschland GmbH, Lubeck, Germany). Propylene glycol was degassed beforehand by heating. The product container was kept under nitrogen. The average diameter determined by light microscopy was 5.45 μm after 30 minutes' homogenization time.

[4] = Example 1: 1% drug, 0.5% Tween 80, anhydrous glycerol, 6 cycles at 1500 bar, room temperature
[5] = Example 3: anhydrous glycerol, 10 cycles at 1500 bar
[6] = Example 3: purely aqueous dispersion (glycerol replaced by water), 10 cycles at 1500 bar
[7] = Example 6: 1.0% water, 4 cycles at 1500 bar
[8] = Example 6: anhydrous (0% water), 4 cycles at 1500 bar
[9] = Example 7: 10% water, 4 cycles at 1500 bar
[10] = Example 7: 30% water, 4 cycles at 1500 bar
[11] = Example 8: 50% water, 4 cycles at 1500 bar
[12] = Example 13: 10 cycles at 1500 bar
[13] = Example 12: 10% in PEG 400, 0.5% Tween 80, 4 cycles at 1500 bar

- average PCS diameter [1]: 950 nm
- polydispersity index (PI) [1]: 0.513
- D50% LD diameter [2, 4]: 1.7 μm
- D90% LD diameter [2, 4]: 4.5 μm
- D95% LD diameter [2, 4]: 5.4 μm
- D50% diameter [2, 5]: 1.3 μm
- D90% diameter [2, 5]: 3.2 μm
- D50% diameter [2, 6]: 0.9 μm
- D90% diameter [2, 6]: 2.3 μm
- D50% diameter [2, 7]: 2.1 μm
- D90% diameter [2, 7]: 5.4 μm
- D50% diameter [2, 8]: 1.9 μm
- D90% diameter [2, 8]: 4.9 μm
- D50% diameter [2, 9]: 1.7 μm
- D90% diameter [2, 9]: 4.1 μm
- D50% diameter [2, 10]: 1.7 μm
- D90% diameter [2, 10]: 4.2 μm
- D50% diameter [2, 11]: 1.5 μm
- D90% diameter [2, 11]: 3.7 μm
- 95% diameter ([2]; Example 13: 0% water (pure glycerol), 10 cycles at 1500 bar): 3.9 μm
- D50% across dispersion media of 0% to 100% water [2, 12]: little change
- difference in 95% diameter, pure glycerol vs pure water [2, 12]: approx. 1.1 μm
- difference in D95%, 2 cycles vs 10 cycles ([2]; Example 13: pure glycerol (0% water), 1500 bar): approx. 3.1 μm
- D95% ([2]; Example 13: pure glycerol (0% water), after 2 cycles at 1500 bar): 7.0 μm
- 95% diameter ([2]; Example 13: pure water, 10 cycles at 1500 bar): 2.8 μm
SMILES: CC1CN(c2nc(N(CCO)CC(C)(C)O)c3nc(-c4ccccc4)c(N4CC(C)OC(C)C4)nc3n2)CC(C)O1 (stereo not drawn) [drug from example 1, 1-[[2,7-bis(2,6-dimethyl-4-morpholinyl)-6-phenyl-4-pteridinyl]-(2-hydroxyethyl)-amino]-2-methyl-[cis[cis]]-propan-2-ol]

SMILES: NC(=O)N=NC(N)=O [azodicarbonamide]
- average diameter determined by light microscopy [3]: 5.45 μm
- 50% diameter [2, 13]: 3.0 μm
- D90% [2, 13]: 6.2 μm
- D95% [2, 13]: 7.2 μm
